Laboratory results: patent US20100247658A1, “ORGANIC COMPOUNDS” (priority 2007, published 2010)

Experiments:
[1] = prior to micronisation
[2] = micronised, heated for 5 hours at 70° C. in a thermal oven; cited from earlier work

Compound	dispersive surface energy [1] [mJ/m^2]	recrystallisation of amorphous parts / stable product [2]
C[N+]1(C)CCC(OC(=O)C(O)(c2ccccc2)C2CCCC2)C1.[Br-] (centres unmarked) [glycopyrrolate, 3-[(cyclopentyl-hydroxyphenylacetyl)oxy]-1,1-dimethyl-pyrrolidinium bromide]	48	
salbutamol sulfate		failed to lead to recrystallisation
